Test results published in patent US20130267532A1, “CYCLIC AMIDE COMPOUNDS AND THEIR USE IN THE TREATMENT OF DISEASE” (priority 2010, published 2013).

Assays:
PAMPA analysis = type: in vitro ADME; details: pH 7.4, GIT Lipid-0, incubation for 4 h, read-out: Pe pH 7.4
Procedure: Donor: System Solution Concentrate (pION inc.) (25 mL) and DMSO (50 mL) (f.c. 5%) was diluted to 1 L with milliQ water, adjusted to pH5.0 or 7.4 with NaOH. Compound solution (5 μL, 10 mM solution in DMSO) was added to 1 mL of system solution prepared as above, and filtered.
Acceptor: Acceptor Sink Buffer(pION inc.)
Compound solution (200 μL) was added to Donor plate. GIT Lipid-0 (pION inc.) […] was added to Acceptor plate. Acceptor Sink Buffer (200 μL) was added to Acceptor plate. Donor and Acceptor plates were superposed. After incubation for 4 h under humidified conditions, the concentration of test compound in both solutions of Acceptor and Donor plates were measured by UV plate reader (190-500 nm). Permeation coefficient Pe(10^−6 cm/sec) was calculated by the equation shown below.
[formula] ra=(VD/VA)Pe^(A→D)/Pe^(D→A)=rVPe^(A→D)/Pe^(D→A)
rV=(VD/VA) • VD=volume of donor well • VA=volume of acceptor well • t=permeation time • τ^SS=steady state time • R=retention • CD and CA=concentration in donor and acceptor well The results are shown in Table 4.

full-length human TLR8 = target: T1, full-length human TLR8 (Homo sapiens, UniProt Q9NR97); assay: Human TLR8 assay (TLR8/NF-κB/SEAPorter HEK 293 cell line); type: cell-based; details: TLR8 activation, SEAP induction, HEK 293 reporter cells, overnight incubation at 37° C., 0.1% DMSO
T1 construct: a stably co-transfected cell line which expresses full-length human TLR8; host or cells: TLR8/NF-κB/SEAPorter HEK 293 Cell Line
T1 sequence (Q9NR97 27-1041): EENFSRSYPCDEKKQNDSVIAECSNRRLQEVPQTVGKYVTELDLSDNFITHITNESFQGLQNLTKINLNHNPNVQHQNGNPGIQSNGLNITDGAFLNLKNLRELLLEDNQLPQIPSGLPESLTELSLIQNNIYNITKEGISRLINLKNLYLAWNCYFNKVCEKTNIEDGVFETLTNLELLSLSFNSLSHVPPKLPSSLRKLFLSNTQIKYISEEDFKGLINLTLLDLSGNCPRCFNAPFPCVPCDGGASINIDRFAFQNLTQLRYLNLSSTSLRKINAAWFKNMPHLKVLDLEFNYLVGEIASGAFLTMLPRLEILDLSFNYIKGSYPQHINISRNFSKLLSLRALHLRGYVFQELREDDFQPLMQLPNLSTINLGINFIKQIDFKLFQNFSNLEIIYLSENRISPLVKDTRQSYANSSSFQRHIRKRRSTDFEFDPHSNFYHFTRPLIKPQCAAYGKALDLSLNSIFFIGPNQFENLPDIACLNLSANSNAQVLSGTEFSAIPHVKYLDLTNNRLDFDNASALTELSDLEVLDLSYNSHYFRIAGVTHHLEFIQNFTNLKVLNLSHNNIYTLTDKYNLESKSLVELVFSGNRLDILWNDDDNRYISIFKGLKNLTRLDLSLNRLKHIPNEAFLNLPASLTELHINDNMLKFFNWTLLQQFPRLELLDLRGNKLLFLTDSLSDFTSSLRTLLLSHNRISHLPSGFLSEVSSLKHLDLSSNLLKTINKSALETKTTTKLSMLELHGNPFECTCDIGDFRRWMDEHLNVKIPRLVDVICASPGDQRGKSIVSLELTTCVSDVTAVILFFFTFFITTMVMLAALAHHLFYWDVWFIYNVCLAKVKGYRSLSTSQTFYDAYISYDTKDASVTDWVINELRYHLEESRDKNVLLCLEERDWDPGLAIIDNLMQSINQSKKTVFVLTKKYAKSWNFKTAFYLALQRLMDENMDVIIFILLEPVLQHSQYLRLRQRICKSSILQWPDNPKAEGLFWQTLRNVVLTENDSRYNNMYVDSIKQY
Description: TLR8/NF-κB/SEAPorter™ HEK 293 Cell Line (Imgenex Corporation) is a stably co-transfected cell line which expresses full-length human TLR8 and the secreted alkaline phosphatase (SEAP) reporter gene under the transcriptional control of an NF-κB response element. TLR8 expression in this cell line has been tested by flow cytometry. Transfectants with stable expression were selected using the antibiotic blasticidin and geneticin. TLR signaling leads to the translocation of NF-κB and activation of the promoter results in expression of the SEAP gene. TLR8-specific activation was assessed by determining the level of SEAP produced following overnight incubation of the cells at 37° C. with the standard compound in the presence of 0.1% (v/v) dimethylsulfoxide (DMSO). Concentration dependent induction of SEAP production by compounds was expressed as the concentration of compound which produced half of the maximal level of SEAP induction for that compound (EC50).

Papp at 4 h, 50 µM (PAMPA analysis) | EC50 (full-length human TLR8) | SMILES
35.6 ×10⁻⁶ cm/s | > 10 µM | CCCCNc1nc(N)nc(C)c1Cc1ccc(N2CCN(C)CC2=O)cc1OC [Example 1, 1-(4-{[2-Amino-4-(butylamino)-6-methylpyrimidin-5-yl]methyl}-3-methoxyphenyl)-4-methylpiperazin-2-one]
44.2 ×10⁻⁶ cm/s | > 10 µM | CCCCCNc1nc(N)nc(C)c1Cc1ccc(N2CCN(C)CC2=O)cc1OC [Example 2, 1-(4-{[2-Amino-4-methyl-6-(pentylamino)pyrimidin-5-yl]methyl}-3-methoxyphenyl)-4-methylpiperazin-2-one]
23.7 ×10⁻⁶ cm/s | 6.31 µM | CCC[C@@H](CCO)Nc1nc(N)nc(C)c1Cc1ccc(N2CCN(C)CC2=O)cc1OC [Example 3, (S)-1-(4-{[2-Amino-4-(1-hydroxyhexan-3-ylamino)-6-methylpyrimidin-5-yl]methyl}-3-methoxyphenyl)-4-methylpiperazin-2-one]
1.3 ×10⁻⁶ cm/s | 5.01 µM | CCC[C@@H](CO)Nc1nc(N)nc(C)c1Cc1ccc(N2CCN(C)CC2=O)cc1OC [Example 4, (S)-1-(4-{[2-Amino-4-(1-hydroxypentan-2-ylamino)-6-methylpyrimidin-5-yl]methyl}-3-methoxyphenyl)-4-methylpiperazin-2-one]
< 0.1 ×10⁻⁶ cm/s | > 10 µM | CCC[C@@H](CCO)Nc1nc(N)nc(C)c1Cc1ccc(N2CCNCC2=O)cc1OC [Example 5, (S)-1-(4-{[2-Amino-4-(1-hydroxyhexan-3-ylamino)-6-methylpyrimidin-5-yl]methyl}-3-methoxyphenyl)piperazin-2-one]
